Here are results for one molecule from paper PMC5292209 (Biochemistry, 2016).

By Km is commonly meant the substrate concentration at which the rate is half of its maximum.

For this test, the target named is T1, Protein tyrosine phosphatase 1B (PTP1B) (Homo sapiens, UniProt P18031).
T1 sequence (P18031 1-301): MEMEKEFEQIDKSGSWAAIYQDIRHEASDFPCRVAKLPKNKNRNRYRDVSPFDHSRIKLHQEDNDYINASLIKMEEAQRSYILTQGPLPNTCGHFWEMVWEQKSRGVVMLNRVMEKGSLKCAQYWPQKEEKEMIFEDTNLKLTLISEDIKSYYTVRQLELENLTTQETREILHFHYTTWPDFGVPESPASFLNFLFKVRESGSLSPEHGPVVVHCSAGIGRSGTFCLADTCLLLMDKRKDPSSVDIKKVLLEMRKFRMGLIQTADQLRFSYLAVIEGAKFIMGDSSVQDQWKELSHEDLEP

With `O=[N+]([O-])c1ccc(OP(=O)(O)O)cc1` [pNPP, p-nitrophenyl phosphate], the Km stood at 2800 ± 100 µM.
